In US7964751B2, “Enantiomers of amino-phenyl-acetic acid octadec-9-(Z) enyl ester, their salts and their uses” (Yeda Research and Development Co. Ltd., priority 2007, dated 2011):
Structures can show the parent of a compound that is named as a salt.

Assays:
[1] = test system: Delayed type hypersensitivity (DTH) skin inflammation in Balb/c mice; experiment: Delayed type hypersensitivity (DTH), oxazolone-induced mouse ear swelling test; format: in vivo; conditions: for % Inflamation (Diff/Base line * 100) / % Inhibition / Difference mm: 24 hours; for inhibition of inflammation: DTH model
Protocol: Delayed type hypersensitivity (DTH), a localized inflammatory reaction induced by cytokines secreted by certain TH cells when they encounter certain types of antigens, is an established experimental model for skin inflammation.
DTH reactions were induced in the abdomen skin of 8 week old female Balb/c mice, weighing 20 g each.
The mice were sensitized first by topical application of 100 μl of a 5% Oxazolone (4-Ethoxymethylene-2-phenyl-2-oxazolin-5-one; Sigma) solution in ethanol/acetone (3:1, vol/vol) to a shaved abdomen. The mice were anesthetized with I.P. injection of 0.2 ml/mouse of a stock solution prepared from Ketamine (1 ml)+Xylazine (1 ml)+Saline (8 ml). The anesthesia was done for the shaving of the abdomen and the first sensitization.
After 4 days the mice were challenged for the second time using 1% Oxazolone (4-Ethoxymethylene-2-phenyl-2-oxazolin-5-one; Sigma) solution in ethanol/acetone (3:1, vol/vol). The solution was pipetted onto the shaved abdomen of the mice.
Six days after the first sensitization, the right ear of each mouse was challenged with topical application of 20 μl (10 μl at each surface of the ear) of a 1% Oxazolone solution in olive oil/acetone (3:1, vol/vol).
Treatment was given 30 min after the elicitation by applying 40 μl (20 μl at each surface of the ear) of treatment compounds, as described before, on the challenged ear of each mouse.
After 24 hours, the extent of inflammation was measured using the mouse ear swelling test (caliper) and the percent inhibition induced by the treatment was quantified.
The experiment includes a positive control group which was administered Dexamethasone 2 mg/mouse, one untreated group as a negative control and one naïve group.
Baseline measurements of the ear were conducted before the first sensitization.

[2] = Racemization in various solvents, S-isomer measured by chiral HPLC; format: physicochemical
Protocol: A sample of (R)-Amino-phenyl-acetic acid octadec-9-(Z)-enyl ester HCl (Compound 2) was suspended in various solvents (2 mg/ml). The compound was 99.7% enantiomerically pure as determined by chiral HPLC. The presence of the S-isomer (compound 1) was measured after various time points. The amount of racemization in terms of percent (relative to compound 1+compound 2) is detailed in Table 2 below.
The presence of the S-isomer (Compound 1) was measured by chiral HPLC after various time points. The amount in terms of percent (relative to compound 1+compound 2) is detailed in the table below.

pKa of the compound = format: physicochemical
[3] = 5 mg/ml, 0.2 mg/mouse topical on challenged ear
[4] = 8 mg/ml, 0.32 mg/mouse topical on challenged ear
[5] = 12.5 mg/ml, 0.5 mg/mouse topical on challenged ear
[6] = 25 mg/ml, 1 mg/mouse topical on challenged ear
[7] = positive control, 50 mg/ml, 2 mg/mouse

CCCCCCCC/C=C\CCCCCCCCOC(=O)C(N)c1ccccc1.Cl (racemic) [Racemic, aminophenylacetic acid octadec-(Z)-9-enyl ester HCl, reference compound]
% Inflamation (Diff/Base line * 100) [1, 3]: 69.43% | % Inhibition [1, 3]: 38.46% | Difference mm [1, 3]: 0.18 mm | % Inflamation (Diff/Base line * 100) [1, 4]: 73.53% | % Inhibition [1, 4]: 39.98% | Difference mm [1, 4]: 0.17 mm | % Inflamation (Diff/Base line * 100) [1, 5]: 43.08% | % Inhibition [1, 5]: 60.14% | Difference mm [1, 5]: 0.11 mm | % Inflamation (Diff/Base line * 100) [1, 6]: 13.68% | % Inhibition [1, 6]: 87.76% | Difference mm [1, 6]: 0.04 mm | inhibition of inflammation [1]: provide inhibition of inflammation

CCCCCCCC/C=C\CCCCCCCCOC(=O)[C@@H](N)c1ccccc1 [Compound 1, (S)-Amino-phenyl-acetic acid octadec-9-(Z)-enyl ester HCl]
% Inflamation (Diff/Base line * 100) [1, 3]: 87.18% | % Inhibition [1, 3]: 20.75% | Difference mm [1, 3]: 0.23 mm | % Inflamation (Diff/Base line * 100) [1, 4]: 34.76% | % Inhibition [1, 4]: 68.53% | Difference mm [1, 4]: 0.09 mm | % Inflamation (Diff/Base line * 100) [1, 5]: 25.84% | % Inhibition [1, 5]: 77.86% | Difference mm [1, 5]: 0.06 mm | % Inflamation (Diff/Base line * 100) [1, 6]: 17.70% | % Inhibition [1, 6]: 83.68% | Difference mm [1, 6]: 0.05 mm | inhibition of inflammation [1]: provide inhibition of inflammation

CCCCCCCC/C=C\CCCCCCCCOC(=O)[C@H](N)c1ccccc1 [Compound 2, (R)-Amino-phenyl-acetic acid octadec-9-(Z)-enyl ester HCl]
Percent racemization (relative to compound 1 + compound 2) ([2]; 0.1 N HCl, 2 mg/ml, 0 hours): 0.4% | Percent racemization (relative to compound 1 + compound 2) ([2]; 0.1 N HCl, 2 mg/ml, 1 hour): 0.4% | Percent racemization (relative to compound 1 + compound 2) ([2]; 0.1 N HCl, 2 mg/ml, 2 hours): 0.4% | Percent racemization (relative to compound 1 + compound 2) ([2]; 0.1 N HCl, 2 mg/ml, 3 hours): 0.3% | Percent racemization (relative to compound 1 + compound 2) ([2]; 0.1 N HCl, 2 mg/ml, 4 hours): 0.3% | Percent racemization (relative to compound 1 + compound 2) ([2]; 0.1 N HCl, 2 mg/ml, 21 hours): 0.3% | Percent racemization (relative to compound 1 + compound 2) ([2]; 0.9% NaCl solution, 2 mg/ml, 0 hours): 0.9% | Percent racemization (relative to compound 1 + compound 2) ([2]; 0.9% NaCl solution, 2 mg/ml, 1 hour): 1.2% | Percent racemization (relative to compound 1 + compound 2) ([2]; 0.9% NaCl solution, 2 mg/ml, 2 hours): 2.3% | Percent racemization (relative to compound 1 + compound 2) ([2]; 0.9% NaCl solution, 2 mg/ml, 3 hours): 3.3% | Percent racemization (relative to compound 1 + compound 2) ([2]; 0.9% NaCl solution, 2 mg/ml, 4 hours): 3.0% | Percent racemization (relative to compound 1 + compound 2) ([2]; 0.9% NaCl solution, 2 mg/ml, 21 hours): 6.0% | S-isomer (Compound 1) amount in percent (relative to compound 1+compound 2) ([2]; 1% Acetic acid, pH 2.8, 2 mg/ml, 0 hr): 0.7% | S-isomer (Compound 1) amount in percent (relative to compound 1+compound 2) ([2]; 1% Acetic acid, pH 2.8, 2 mg/ml, 1 hr): 2.0% | S-isomer (Compound 1) amount in percent (relative to compound 1+compound 2) ([2]; 1% Acetic acid, pH 2.8, 2 mg/ml, 2 hr): 3.6% | S-isomer (Compound 1) amount in percent (relative to compound 1+compound 2) ([2]; 1% Acetic acid, pH 2.8, 2 mg/ml, 3 hr): 5.2% | S-isomer (Compound 1) amount in percent (relative to compound 1+compound 2) ([2]; 1% Acetic acid, pH 2.8, 2 mg/ml, 4 hr): 6.6% | S-isomer (Compound 1) amount in percent (relative to compound 1+compound 2) ([2]; Acetate Buffer, pH 3.5, 2 mg/ml, 0 hr): 0.3% | S-isomer (Compound 1) amount in percent (relative to compound 1+compound 2) ([2]; Acetate Buffer, pH 3.5, 2 mg/ml, 1 hr): 3.3% | S-isomer (Compound 1) amount in percent (relative to compound 1+compound 2) ([2]; Acetate Buffer, pH 3.5, 2 mg/ml, 2 hr): 6.2% | S-isomer (Compound 1) amount in percent (relative to compound 1+compound 2) ([2]; Acetate Buffer, pH 3.5, 2 mg/ml, 3 hr): 9.3% | S-isomer (Compound 1) amount in percent (relative to compound 1+compound 2) ([2]; Acetate Buffer, pH 3.5, 2 mg/ml, 4 hr): 12.1% | S-isomer (Compound 1) amount in percent (relative to compound 1+compound 2) ([2]; Acetate Buffer, pH 4.0, 2 mg/ml, 0 hr): 0.2% | S-isomer (Compound 1) amount in percent (relative to compound 1+compound 2) ([2]; Acetate Buffer, pH 4.0, 2 mg/ml, 1 hr): 7.7% | S-isomer (Compound 1) amount in percent (relative to compound 1+compound 2) ([2]; Acetate Buffer, pH 4.0, 2 mg/ml, 2 hr): 15.2% | S-isomer (Compound 1) amount in percent (relative to compound 1+compound 2) ([2]; Acetate Buffer, pH 4.0, 2 mg/ml, 3 hr): 22.1% | S-isomer (Compound 1) amount in percent (relative to compound 1+compound 2) ([2]; Acetate Buffer, pH 4.0, 2 mg/ml, 4 hr): 27.2% | S-isomer (Compound 1) amount in percent (relative to compound 1+compound 2) ([2]; Acetate Buffer, pH 5.0, 2 mg/ml, 0 hr): 0.2% | S-isomer (Compound 1) amount in percent (relative to compound 1+compound 2) ([2]; Acetate Buffer, pH 5.0, 2 mg/ml, 1 hr): 6.3% | S-isomer (Compound 1) amount in percent (relative to compound 1+compound 2) ([2]; Acetate Buffer, pH 5.0, 2 mg/ml, 2 hr): 14.6% | S-isomer (Compound 1) amount in percent (relative to compound 1+compound 2) ([2]; Acetate Buffer, pH 5.0, 2 mg/ml, 3 hr): 19.0% | S-isomer (Compound 1) amount in percent (relative to compound 1+compound 2) ([2]; Acetate Buffer, pH 5.0, 2 mg/ml, 4 hr): 25.3% | S-isomer (Compound 1) amount in percent (relative to compound 1+compound 2) ([2]; Acetate Buffer, pH 5.5, 2 mg/ml, 0 hr): 0.2% | S-isomer (Compound 1) amount in percent (relative to compound 1+compound 2) ([2]; Acetate Buffer, pH 5.5, 2 mg/ml, 1 hr): 4.7% | S-isomer (Compound 1) amount in percent (relative to compound 1+compound 2) ([2]; Acetate Buffer, pH 5.5, 2 mg/ml, 2 hr): 8.2% | S-isomer (Compound 1) amount in percent (relative to compound 1+compound 2) ([2]; Acetate Buffer, pH 5.5, 2 mg/ml, 3 hr): 12.4% | S-isomer (Compound 1) amount in percent (relative to compound 1+compound 2) ([2]; Acetate Buffer, pH 5.5, 2 mg/ml, 4 hr): 16.4% | Percent racemization (relative to compound 1 + compound 2) ([2]; PBS, pH 7.4, 2 mg/ml, 0 hours): 0.4% | Percent racemization (relative to compound 1 + compound 2) ([2]; PBS, pH 7.4, 2 mg/ml, 1 hour): 7.2% | Percent racemization (relative to compound 1 + compound 2) ([2]; PBS, pH 7.4, 2 mg/ml, 2 hours): 12.3% | Percent racemization (relative to compound 1 + compound 2) ([2]; PBS, pH 7.4, 2 mg/ml, 3 hours): 15.0% | Percent racemization (relative to compound 1 + compound 2) ([2]; PBS, pH 7.4, 2 mg/ml, 4 hours): 17.9% | Percent racemization (relative to compound 1 + compound 2) ([2]; PBS, pH 7.4, 2 mg/ml, 21 hours): 47.0% | Percent racemization (relative to compound 1 + compound 2) ([2]; Purified water, 2 mg/ml, 0 hours): 0.4% | Percent racemization (relative to compound 1 + compound 2) ([2]; Purified water, 2 mg/ml, 1 hour): 3.8% | Percent racemization (relative to compound 1 + compound 2) ([2]; Purified water, 2 mg/ml, 2 hours): 7.2% | Percent racemization (relative to compound 1 + compound 2) ([2]; Purified water, 2 mg/ml, 3 hours): 10.3% | Percent racemization (relative to compound 1 + compound 2) ([2]; Purified water, 2 mg/ml, 4 hours): 13.9% | Percent racemization (relative to compound 1 + compound 2) ([2]; Purified water, 2 mg/ml, 21 hours): 38.2% | racemization in various aqueous solvents ([2]; various aqueous solvents): undergoes racemization | % Inflamation (Diff/Base line * 100) [1, 3]: 71.13% | % Inhibition [1, 3]: 39.39% | Difference mm [1, 3]: 0.17 mm | % Inflamation (Diff/Base line * 100) [1, 4]: 41.68% | % Inhibition [1, 4]: 62.12% | Difference mm [1, 4]: 0.11 mm | % Inflamation (Diff/Base line * 100) [1, 5]: 50.31% | % Inhibition [1, 5]: 55.71% | Difference mm [1, 5]: 0.13 mm | % Inflamation (Diff/Base line * 100) [1, 6]: 35.01% | % Inhibition [1, 6]: 68.53% | Difference mm [1, 6]: 0.09 mm | inhibition of inflammation [1]: provide inhibition of inflammation | pKa (pKa of the compound): 4.2

C[C@@H]1C[C@H]2[C@@H]3CCC4=CC(=O)C=C[C@]4(C)[C@@]3(F)[C@@H](O)C[C@]2(C)[C@@]1(O)C(=O)CO [dexamethasone, Dexamethasone, reference compound]
% Inflamation (Diff/Base line * 100) [1, 7]: 22.62% | % Inhibition [1, 7]: 80.42% | Difference mm [1, 7]: 0.06 mm
